Where two headings read alike, the source gives them in different places.
Assays:
[1] = Metabolism rate, pmol/min/mg at 1 μM, rat male; assay type: in vitro ADME; conditions: 1 μM compound
[2] = Metabolism rate, pmol/min/mg at 1 μM, human; assay type: in vitro ADME; conditions: 1 μM compound
[3] = Metabolism rate, pmol/min/mg at 1 μM, rat female; assay type: in vitro ADME; conditions: 1 μM compound
rat GnRH receptor = biological target: T1, rat GnRH receptor (Rattus norvegicus, UniProt P30969); assay: Radioligand binding, 125I-GnRH-A, rat pituitary membranes; design: membranes were prepared from rat pituitary; from tissue; host or cells: rat pituitary
T1 sequence (P30969 1-327): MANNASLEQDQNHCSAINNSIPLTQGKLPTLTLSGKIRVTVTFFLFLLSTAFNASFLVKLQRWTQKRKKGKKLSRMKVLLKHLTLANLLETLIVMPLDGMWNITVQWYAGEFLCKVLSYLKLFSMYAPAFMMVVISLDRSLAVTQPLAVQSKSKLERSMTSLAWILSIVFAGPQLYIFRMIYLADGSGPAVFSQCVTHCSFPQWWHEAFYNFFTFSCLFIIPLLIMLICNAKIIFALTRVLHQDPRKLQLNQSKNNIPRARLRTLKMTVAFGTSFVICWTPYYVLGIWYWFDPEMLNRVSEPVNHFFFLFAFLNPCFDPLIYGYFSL
How it was run: (§1)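 Bound label captured on 0.1% polyethyleneimine-treated GF/C filters, washed three times with PBS, counted. IC50 derived; identical set-up for every species.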

human GnRH receptor = biological target: T2, human GnRH receptor (Homo sapiens, UniProt P30968); assay: Radioligand binding, 125I-GnRH-A displacement, membranes of HEK 293 cells with human GnRH receptor
T2 construct: expressed in transfected cells; host or cells: HEK 293 (hGnRH-R/293, from Dr. Stuart Sealfon)
T2 sequence (P30968 1-328): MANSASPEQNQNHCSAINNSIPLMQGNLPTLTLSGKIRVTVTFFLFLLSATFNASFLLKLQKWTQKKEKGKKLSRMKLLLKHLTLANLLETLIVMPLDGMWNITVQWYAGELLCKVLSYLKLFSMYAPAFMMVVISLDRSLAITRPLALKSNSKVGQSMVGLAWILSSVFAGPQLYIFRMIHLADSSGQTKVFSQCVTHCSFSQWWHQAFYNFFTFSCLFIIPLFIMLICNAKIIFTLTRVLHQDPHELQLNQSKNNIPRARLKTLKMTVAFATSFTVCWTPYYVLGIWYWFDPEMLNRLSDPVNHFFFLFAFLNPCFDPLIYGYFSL
How it was run: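 After filtration and PBS washes, bound radioactivity was counted by scintillation and IC50 derived. Identical conditions applied for non-human receptors.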

mouse GnRH receptor = biological target: T3, mouse GnRH receptor (Mus musculus, UniProt Q01776); assay: Radioligand binding, 125I-GnRH-A, 293 cells expressing mouse GnRH receptors
T3 construct: expressed in transfected cells; host or cells: 293 cells
T3 sequence (Q01776 1-327): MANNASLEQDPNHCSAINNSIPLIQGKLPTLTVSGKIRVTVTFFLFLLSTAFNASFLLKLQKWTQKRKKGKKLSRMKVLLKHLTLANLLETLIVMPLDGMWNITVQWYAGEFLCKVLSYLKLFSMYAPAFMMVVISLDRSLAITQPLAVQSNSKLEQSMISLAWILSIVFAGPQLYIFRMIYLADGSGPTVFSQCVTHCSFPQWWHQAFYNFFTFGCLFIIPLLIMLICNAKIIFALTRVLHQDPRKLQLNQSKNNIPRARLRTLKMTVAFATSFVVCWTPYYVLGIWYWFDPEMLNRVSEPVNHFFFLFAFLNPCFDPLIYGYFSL
How it was run: as §1

[4] = Pharmacokinetic studies / bioavailability in rats; assay type: in vivo, rat; conditions: for Cmax / Tmax / half-life: rat, plasma; for Cmax / Tmax: po, p.o. 10 mg/kg
bovine GnRH receptor = biological target: T4, bovine GnRH receptor (Bos taurus, UniProt P32236); assay: Radioligand binding, 125I-GnRH-A, bovine pituitary membranes
T4 construct: membranes were prepared from bovine pituitary; from tissue; host or cells: bovine pituitary
T4 sequence (P32236 1-328): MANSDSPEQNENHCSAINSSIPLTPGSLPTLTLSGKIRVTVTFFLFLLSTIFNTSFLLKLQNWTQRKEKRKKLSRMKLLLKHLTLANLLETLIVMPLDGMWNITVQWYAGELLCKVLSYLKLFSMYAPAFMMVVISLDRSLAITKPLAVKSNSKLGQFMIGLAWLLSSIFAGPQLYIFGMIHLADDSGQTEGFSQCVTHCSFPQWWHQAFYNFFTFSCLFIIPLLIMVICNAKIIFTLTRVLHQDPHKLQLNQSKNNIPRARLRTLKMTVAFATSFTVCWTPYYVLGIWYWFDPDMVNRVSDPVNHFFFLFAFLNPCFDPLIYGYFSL
Method: All compounds were diluted in 1% DMSO (final assay concentration) in binding assay buffer. […] Reactions were terminated by rapid filtration onto 96-well Packard GF/C filters soaked in 0.1% polyethyleneimine. Filters were washed three times with PBS buffer, dried and counted on a Packard Topcount by liquid scintillation counting.
Assay conditions were identical for assessing compound activities at other species. […] IC50 values for control peptides and test compounds were calculated utilizing GraphPad Prism™ software.
The reaction mixture was vortexed and incubated for 1 min at room temperature. After one min, the mixture was vortexed and allowed to incubate for an additional minute. 2 ml of 0.5 M acetic acid/1% BSA was added to the reaction tube and the mixture was added to a C18 Sep-Pak cartridge. The cartridge was washed with subsequent washes of 5 ml H2O and 5 ml 0.5M acetic acid and then eluted with 5×1 ml of 60% CH3CN/40% 0.5M acetic acid. The eluate was diluted with 3× volume of HPLC buffer A (0.1% TFA in H2O) and loaded onto a C18 column. […] The radioactive fractions (750 ed/fraction) are collected into clean polypropylene tubes containing 100 μl of 10% BSA. Fractions were assessed for biological activity by radioligand binding.

[5] = female, 10 mg/kg, rat female, 5 mg/ml solution in 10% DMSO 10% cremophor 80% saline
[6] = rat female, 5 mg/ml solution in 10% DMSO 10% cremophor 80% saline
[7] = second value marked * (mostly in parentheses), asterisk not explained, read-out: hGnRH IC50, value marked *
[8] = means ± SE of at least three experiments performed in duplicate, read-out: Rat IC50
[9] = means ± SE of at least three experiments performed in duplicate, read-out: Bovine IC50
[10] = means ± SE of at least three experiments performed in duplicate, read-out: Human IC50
[11] = means ± SE of at least three experiments performed in duplicate, read-out: Mouse IC50
[12] = male, 10 mg/kg, rat male, vehicle per footnote

Row | Compound | Rat male pmol/min/mg 1 μM [1] [pmol/min/mg] | Human pmol/min/mg 1 μM [2] [pmol/min/mg] | Rat female pmol/min/mg 1 μM [3] [pmol/min/mg] | IC50 (rat GnRH receptor; read-out: rGnRH IC50) [nM] | IC50 (human GnRH receptor; read-out: hGnRH IC50) [nM] | IC50 (mouse GnRH receptor; read-out: mGnRH IC50) [nM] | Cmax [4, 5] [nM] | Tmax [4, 5] [h] | half-life ([4]; female, rat female) [h] | Fp.o. [4, 6] | IC50 (bovine GnRH receptor; read-out: bGnRH IC50) [nM] | IC50 (human GnRH receptor; [7]) [nM] | half-life ([4]; male, iv, 10 mg/kg, rat male) [h] | IC50 (rat GnRH receptor; [8]) [nM] | IC50 (bovine GnRH receptor; [9]) [nM] | IC50 (human GnRH receptor; [10]) [nM] | IC50 (mouse GnRH receptor; [11]) [nM] | Cmax [4, 12] [nM] | Tmax [4, 12] [h]
1 | COc1cc2c(cc1Cc1ccc(C(=O)Nc3c(OC)cc(OC)c(C#N)c3OC)o1)C(C)(C)CCC2(C)C [Compound 217] | 953 | 483 | 203 | 21 | 29 | 11 | 100 | 1 | 3.8 | 16% (10 mg/kg)^10 |  |  |  |  |  |  |  |  | 
2 | COc1cccc(OC)c1NC(=O)c1ccc(Cc2c(C)c(C)cc(C)c2C)o1 [Compound 225] | 2180 | 450 | 330 | 1510 | 174 | 850 | 340 | 1 | 1.1 | 24% (10 mg/kg)^10 |  |  |  |  |  |  |  |  | 
3 | Cc1cc2c(cc1Cc1ccc(C(=O)NCc3ccc(CNc4ncccn4)cc3)o1)C(C)(C)CCC2(C)C [Compound 137] |  | 594 | 182 | 400 | 200 | 360 | 230 | 1 | 7.9 | 1% (10 mg/kg)^10 |  |  |  |  |  |  |  |  | 
4 | COC(=O)c1ccc(OC)c(NC(=O)c2ccc(Cc3cc4c(cc3C)C(C)(C)CCC4(C)C)o2)c1 [Compound 72] | 4226 | 278 |  | 84 | 130 | 85 |  |  |  |  | 1440 |  |  |  |  |  |  |  | 
5 | Cc1ccc(C(C)(C)C)cc1Cc1ccc(C(=O)Nc2ccc3[nH]ccc3c2)o1 [Compound 207] | 1236 | 157 | 159 |  | 200 |  | 2810 | 1 | 1.6 | 41% (10 mg/kg)^10 |  |  |  |  |  |  |  |  | 
6 | CCOc1cccc(OCC)c1NC(=O)c1ccc(Cc2cc3c(cc2C)C(C)(C)CCC3(C)C)o1 [Compound 194] | 5978 | 750 | 205 | 35 | 18 | 14 |  |  |  |  |  |  |  |  |  |  |  |  | 
7 | Cc1cc2c(cc1Cc1ccc(C(=O)NCCOc3ccccc3)o1)C(C)(C)CCC2(C)C [Compound 47] | 2198 | 392 |  | 130 | 230 | 240 |  |  |  |  | 1920 | 80 | 1.5 |  |  |  |  |  | 
8 | COc1ccc(CNC(=O)c2ccc(Cc3cc4c(cc3C)C(C)(C)CCC4(C)C)o2)c(OC)c1 [Compound 56] | 3412 | 392 |  | 70 | 100 | 220 |  |  |  |  | 1000 |  | 2.6 |  |  |  |  |  | 
9 | Cc1ccc(CNC(=O)c2ccc(Cc3cc4c(cc3C)C(C)(C)CCC4(C)C)o2)cc1C [Compound 18] |  |  |  | 40 | 55 | 115 |  |  |  |  |  |  | 0.917 | 40 ± 3 | 460 ± 90 | 55 ± 11 | 115 ± 25 |  | 
10 | CC(=O)c1cccc(NC(=O)c2ccc(Cc3cc4c(cc3C)C(C)(C)CCC4(C)C)o2)c1 [Compound 19] |  |  |  | 60 | 50 | 160 |  |  |  |  | 605 |  | 0.717 |  |  | 50 ± 3 |  |  | 
11 | COc1ccc(CNC(=O)c2ccc(Cc3cc4c(cc3C)C(C)(C)CCC4(C)C)o2)cc1 [Compound 42] | 1387 | 361 |  | 100 | 75 | 280 |  |  |  |  | 1780 | 65 | 0.967 |  |  |  |  |  | 

Now from value to compound:

Row | Rat male pmol/min/mg 1 μM [1] [pmol/min/mg] | Human pmol/min/mg 1 μM [2] [pmol/min/mg] | Rat female pmol/min/mg 1 μM [3] [pmol/min/mg] | IC50 (rat GnRH receptor; read-out: rGnRH IC50) [nM] | IC50 (human GnRH receptor; read-out: hGnRH IC50) [nM] | IC50 (mouse GnRH receptor; read-out: mGnRH IC50) [nM] | Cmax [4, 5] [nM] | Tmax [4, 5] [h] | half-life ([4]; female, rat female) [h] | Fp.o. [4, 6] | IC50 (bovine GnRH receptor; read-out: bGnRH IC50) [nM] | IC50 (human GnRH receptor; [7]) [nM] | half-life ([4]; male, iv, 10 mg/kg, rat male) [h] | IC50 (rat GnRH receptor; [8]) [nM] | IC50 (bovine GnRH receptor; [9]) [nM] | IC50 (human GnRH receptor; [10]) [nM] | IC50 (mouse GnRH receptor; [11]) [nM] | Cmax [4, 12] [nM] | Tmax [4, 12] [h] | Compound
12 | 1781 | 485 |  | 900 |  | 1880 |  |  |  |  | 8700 | 330 | 0.917 |  |  |  |  |  |  | Cc1cc2c(cc1Cc1ccc(C(=O)NCc3ccccc3F)o1)C(C)(C)CCC2(C)C [Compound 46]
13 | 1877 | 392 |  | 120 | 150 | 400 |  |  |  |  | 1930 |  |  |  |  |  |  |  |  | Cc1cc2c(cc1Cc1ccc(C(=O)NCc3ccccc3Cl)o1)C(C)(C)CCC2(C)C [Compound 51]
14 | 1759 | 459 |  | 510 | 390 | 610 |  |  |  |  | 4440 | 120 | 0.917 |  |  |  |  |  |  | Cc1cc2c(cc1Cc1ccc(C(=O)NCc3cccs3)o1)C(C)(C)CCC2(C)C [Compound 44]
15 |  |  |  | 60 | 80 | 290 |  |  |  |  |  |  | 1.4 | 60 ± 15 | 1050 ± 30 | 80 ± 4 | 290 ± 70 | 1600 | 1 | Cc1ccc(CNC(=O)c2ccc(Cc3cc4c(cc3C)C(C)(C)CCC4(C)C)o2)cc1 [Compound 14]
16 |  |  |  | 560 | 30 | 1290 |  |  |  |  |  |  | 0.667 | 560 ± 50 | 4380 ± 510 | 30 ± 6 | 1290 ± 210 |  |  | Cc1cc2c(cc1Cc1ccc(C(=O)NCC3CCC(C#N)CC3)o1)C(C)(C)CCC2(C)C (centres unmarked) [Compound 16]
17 | 1606 | 185 |  | 210 | 140 | 490 |  |  |  |  | 1400 |  |  |  |  |  |  |  |  | Cc1cccc(CNC(=O)c2ccc(Cc3cc4c(cc3C)C(C)(C)CCC4(C)C)o2)c1 [Compound 41]

Reference: patent US7101878B1 (Agouron Pharmaceuticals, Inc., priority 1998, dated 2006)
